Experimental data taken from patent US20090069430A1, “DIBENZENE DERIVATIVES AS CALCIUM CHANNEL BLOCKERS” (NEUROPHARMA, S.A., priority 2005, published 2009).

Test system: VDCC
Experiment: VDCC inhibition: calcium entry (Fluo-4 fluorescence) after depolarization with 60 mM KCl in SH-SY5Y neuroblastoma cells
Assay type: cell-based, human
Experimental: This assay is aimed to determine the VDCC blocker activity of compounds; it is performed using SH-SY5Y neuroblastoma cells. SH-SY5Y cells were plated at 5×10^4 cells per well into Black/Clear Bottom 96-well culture plate, 48 hours before treatment. Cells were loaded with Fluo-4, 5 μM and pluronic acid, 0.1%, for 30 min at 37° C., 5% CO2, following a incubation of 15 min at RT in Krebs-HEPES solution. Immediately cells are exposed to the samples for 10 min at different concentrations, depending on potency. After the treatment, calcium entry is measured as fluorescence in a Fluostar Optima plate reader (BMG) in response to depolarization with 60 mM KCl. The excitation wavelength was 485 nm, and that of emission 520 nm.

[1] = compound at 10^−5, 10 min exposure
[2] = compound at 10^−6, 10 min exposure
[3] = compound at 10^−7, 10 min exposure
[4] = compound at 10^−8, 10 min exposure

Row | SMILES | % of calcium entry inhibition [1] | % of calcium entry inhibition [2] | % of calcium entry inhibition [3] | % of calcium entry inhibition [4]
1 | CCC(C)Oc1cc(OC)ccc1C(=O)NCCCOc1ccc(CCNC(=O)c2ccc(OC)cc2OC(C)CC)cc1 (stereo not shown) [Compound 19] | 75 ± 12% | 69 ± 1% | 0% | 
2 | COc1ccc(C(=O)NCCCOc2ccc(CCNC(=O)c3ccc(OC)cc3OC)cc2)c(OC)c1 [Compound 15] | 91.5 ± 1.5% | 37 ± 5% | 0% | 
3 | COc1cc(OC)c(C(=O)NCCCCCNC(=O)c2ccc(OC)c(C)c2OC)cc1OC [Compound 13] | 27 ± 2% | 0% |  | 
4 | CCCCCOc1cc(OC)ccc1C(=O)NCCCCCCNC(=O)c1ccc(OC)cc1OCCCCC [Compound 21] | 27 ± 7% | 0% |  | 
5 | CCC(C)Oc1cc(OC)ccc1C(=O)NCCCCCCNC(=O)c1ccc(OC)cc1OC(C)CC (stereo not shown) [Compound 20] | 91 ± 3% | 59 ± 19% | 0% | 
6 | COc1ccc(C(=O)NCCCCCNC(=O)c2ccc(OC)c(C)c2OC)c(OC)c1C [Compound 12] | 78 ± 2.5% | 0% |  | 
7 | COc1cc(O)c(C(=O)NCCCCCNC(=O)c2cc(Br)c(OC)c(Br)c2O)cc1Br [Compound 6] | 96.6 ± 4% | 48.7 ± 18% | 27.5 ± 5% | 11.8 ± 16%
8 | COc1ccc(C(=O)NCCCOc2ccc(CCNC(=O)c3ccc(OC)cc3OCC(C)C)cc2)c(OCC(C)C)c1 [Compound 16] | 39 ± 4% | 0% |  | 
9 | COCOc1cc(OC)ccc1C(=O)NCCCOc1ccc(CCNC(=O)c2ccc(OC)cc2OCOC)cc1 [Compound 2] | 93.3 ± 5% | 34.2 ± 1.5% | 29.7 ± 14% | 31.2 ± 9%
10 | COCOc1cc(OC)ccc1C(=O)NCCCCCNC(=O)c1ccc(OC)cc1OCOC [Compound 1] | 57.8 ± 16% |  |  | 
11 | CCCCOc1cc(OC)ccc1C(=O)NCCCOc1ccc(CCNC(=O)c2ccc(OC)cc2OCCCC)cc1 [Compound 18] | 37 ± 2% | 0% |  | 
12 | COc1c(Br)cc(C(=O)NCCCCCNC(=O)c2cc(Br)c(OC)c(Br)c2O)c(O)c1Br [Compound 7] | 90.7 ± 3% | 3.1 ± 0% |  | 
13 | COc1ccc(C(=O)NCCCOc2ccc(CCNC(=O)c3ccc(OC)cc3OCC=C(C)C)cc2)c(OCC=C(C)C)c1 [Compound 17] | 45 ± 12% | 39 ± 8% | 0% | 
14 | COCCOc1cc(OC)ccc1C(=O)NCCCOc1ccc(CCNC(=O)c2ccc(OC)cc2OCCOC)cc1 [Compound 10] | 79 ± 0.1% | 22 ± 19% | 0% | 
15 | CCOC(=O)COc1cc(OC)ccc1C(=O)NCCCOc1ccc(CCNC(=O)c2ccc(OC)cc2OCC(=O)OCC)cc1 [Compound 8] | 57 ± 7% | 0% |  | 
16 | COc1cc(O)c(C(=O)NCCCCCNC(=O)c2cc(Br)c(OC)cc2O)cc1Br [Compound 5] |  | 0% |  | 
17 | COc1ccc(C(=O)NCCCCCCNC(=O)c2ccc(OC)cc2OC)c(OC)c1 [Compound 14] | 38 ± 6% | 0% |  | 
18 | CCCCOc1cc(OC)ccc1C(=O)NCCCCCCNC(=O)c1ccc(OC)cc1OCCCC [Compound 22] | 24 ± 12% | 0% |  | 
19 | COc1ccc(C(=O)NCCCOc2ccc(CCNC(=O)c3ccc(OC)cc3OCC(C)=O)cc2)c(OCC(C)=O)c1 [Compound 11] | 36 ± 3% | 0% |  | 
20 | COCOc1cc(OC)ccc1C(=O)NCCCOc1c(Br)cc(CCNC(=O)c2ccc(OC)cc2OCOC)cc1Br [Compound 4] |  |  | 6 ± 0% | 
21 | CCCOc1cc(OC)ccc1C(=O)NCCCOc1ccc(CCNC(=O)c2ccc(OC)cc2OCCC)cc1 [Compound 9] | 86 ± 0.5% | 61 ± 0% | 0% | 
